Active and inactive are the calls of the source. The calls are words filed in the database; no cut-off is given here.
Legend:
BMDM [1] = test: Anti-osteoporosis activity in ICR mouse bone marrow macrophages assessed as inhibition of RANKL-induced c-Fos protein expression at 0.1 to 1 uM after 24 hrs by Western blot analysis; assay type: functional, cell-based
BMDM [2] = test: Anti-osteoporosis activity in ICR mouse bone marrow macrophages assessed as inhibition of RANKL-induced NFATc1 protein expression at 0.1 to 1 uM after 24 hrs by Western blot analysis; assay type: functional, cell-based
BMDM [3] = test: Inhibition of RANKL-induced osteoclastogenesis in ICR mouse bone marrow macrophages assessed as reduction in TRAP-positive multinucleated osteoclasts at 0.1 to 1 uM after 3 days by TRAP staining based assay; assay type: functional, cell-based
[4] = target: RAC-alpha serine/threonine-protein kinase (Mus musculus) (UniProt P31750); test: Inhibition of AKT phosphorylation in RANKL-induced ICR mouse bone marrow macrophages at 1 uM preincubated for 1 hr followed by RANKL-stimulation and measured after 5 to 30 mins by Western blot analysis
Sequence of RAC-alpha serine/threonine-protein kinase (Mus musculus) (P31750 whole entry): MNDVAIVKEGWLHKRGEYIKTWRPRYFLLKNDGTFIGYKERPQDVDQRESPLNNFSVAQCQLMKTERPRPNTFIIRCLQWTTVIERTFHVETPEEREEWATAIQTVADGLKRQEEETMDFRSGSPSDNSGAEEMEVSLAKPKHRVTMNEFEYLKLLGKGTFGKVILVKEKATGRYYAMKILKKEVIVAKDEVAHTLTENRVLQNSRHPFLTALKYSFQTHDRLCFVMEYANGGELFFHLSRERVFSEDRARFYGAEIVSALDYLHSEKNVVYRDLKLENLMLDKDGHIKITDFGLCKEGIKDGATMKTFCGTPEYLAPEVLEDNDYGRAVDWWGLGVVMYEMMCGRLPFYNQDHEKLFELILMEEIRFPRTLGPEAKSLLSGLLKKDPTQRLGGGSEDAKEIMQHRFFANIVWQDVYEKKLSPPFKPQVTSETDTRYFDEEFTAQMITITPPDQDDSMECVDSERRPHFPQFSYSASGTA

BMDM [5] = test: Inhibition of RANKL-induced osteoclastogenesis in ICR mouse bone marrow macrophages harboring constitutively active IKKbeta assessed as reduction in TRAP-positive multinucleated osteoclasts at 10 uM after 3 days by TRAP staining based assay; assay type: functional, cell-based
Mus musculus [6] = test: Anti-resorptive activity in ICR mouse model of LPS-Induced bone loss assessed as reduction in trabecular separation in proximal femurs at 10 mg/kg, po for 8 days by micro-CT analysis; assay type: functional, organism-based
BMDM [7] = test: Anti-osteoporosis activity in ICR mouse bone marrow macrophages assessed as inhibition of RANKL-induced ATP6v0d2 mRNA expression at 10 uM after 12 to 48 hrs by RT-PCR analysis; assay type: functional
BMDM [8] = test: Inhibition of RANKL-induced osteoclastogenesis in ICR mouse bone marrow harboring constitutively active AKT macrophages assessed as reduction in TRAP-positive multinucleated osteoclasts at 10 uM after 3 days by TRAP staining based assay; assay type: functional, cell-based
Mus musculus [9] = test: Anti-resorptive activity in ICR mouse model of LPS-Induced bone loss assessed as reduction in bone loss in proximal femurs at 10 mg/kg, po for 8 days by micro-CT analysis; assay type: functional, organism-based
[10] = target: T1, 1-phosphatidylinositol 4,5-bisphosphate phosphodiesterase gamma-2 (Mus musculus) (UniProt Q8CIH5); test: Inhibition of PLCgamma2 in ICR mouse bone marrow macrophages assessed as reduction in calcium influx at 10 uM after 3 days by Fluo-3/AM staining based confocal microscopic analysis
T1 sequence (whole entry): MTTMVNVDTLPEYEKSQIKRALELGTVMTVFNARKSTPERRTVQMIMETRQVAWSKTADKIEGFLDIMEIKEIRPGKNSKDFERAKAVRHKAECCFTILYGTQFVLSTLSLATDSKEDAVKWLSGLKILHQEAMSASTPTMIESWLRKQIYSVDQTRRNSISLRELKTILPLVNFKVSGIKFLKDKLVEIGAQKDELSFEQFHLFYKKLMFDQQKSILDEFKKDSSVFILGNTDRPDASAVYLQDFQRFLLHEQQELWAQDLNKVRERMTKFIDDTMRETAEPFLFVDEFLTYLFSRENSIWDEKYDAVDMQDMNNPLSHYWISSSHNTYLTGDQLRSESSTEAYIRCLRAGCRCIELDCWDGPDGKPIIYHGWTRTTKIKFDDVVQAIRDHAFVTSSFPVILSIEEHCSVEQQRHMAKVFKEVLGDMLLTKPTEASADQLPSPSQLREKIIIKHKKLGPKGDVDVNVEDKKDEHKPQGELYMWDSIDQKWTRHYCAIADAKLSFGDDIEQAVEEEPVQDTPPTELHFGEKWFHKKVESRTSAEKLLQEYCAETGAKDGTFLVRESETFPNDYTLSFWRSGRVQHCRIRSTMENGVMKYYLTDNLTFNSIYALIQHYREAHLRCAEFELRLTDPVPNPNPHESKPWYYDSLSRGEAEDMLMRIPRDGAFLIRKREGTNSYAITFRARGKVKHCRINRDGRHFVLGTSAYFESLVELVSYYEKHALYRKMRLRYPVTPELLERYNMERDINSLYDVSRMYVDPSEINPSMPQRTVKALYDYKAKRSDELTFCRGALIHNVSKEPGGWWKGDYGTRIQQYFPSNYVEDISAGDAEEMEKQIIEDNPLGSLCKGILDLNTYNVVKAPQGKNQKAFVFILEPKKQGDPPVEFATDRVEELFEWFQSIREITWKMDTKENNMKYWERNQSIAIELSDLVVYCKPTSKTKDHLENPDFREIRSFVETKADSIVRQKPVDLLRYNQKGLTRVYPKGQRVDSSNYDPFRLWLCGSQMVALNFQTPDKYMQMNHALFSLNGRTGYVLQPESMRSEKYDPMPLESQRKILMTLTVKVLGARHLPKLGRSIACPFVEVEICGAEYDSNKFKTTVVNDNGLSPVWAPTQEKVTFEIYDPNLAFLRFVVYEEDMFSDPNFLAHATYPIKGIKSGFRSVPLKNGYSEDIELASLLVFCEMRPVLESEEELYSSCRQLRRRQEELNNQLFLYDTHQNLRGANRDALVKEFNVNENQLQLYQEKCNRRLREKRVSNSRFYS

BMDM [11] = test: Anti-osteoporosis activity in ICR mouse bone marrow macrophages assessed as inhibition of RANKL-induced MMP9 mRNA expression at 10 uM after 12 to 48 hrs by RT-PCR analysis; assay type: functional
[12] = target: RAC-alpha serine/threonine-protein kinase (Mus musculus) (UniProt P31750); test: Inhibition of AKT phosphorylation in RANKL-induced ICR mouse bone marrow macrophages at 10 uM preincubated for 1 hr followed by RANKL-stimulation and measured after 5 to 30 mins by Western blot analysis
Mus musculus [13] = test: Anti-resorptive activity in ICR mouse model of LPS-Induced bone loss assessed as increase in trabecular number in proximal femurs at 10 mg/kg, po for 8 days by micro-CT analysis; assay type: functional, organism-based
Mus musculus [14] = test: Anti-resorptive activity in ICR mouse model of LPS-Induced bone loss assessed as inhibition of TRAP-positive multinucleated osteoclasts formation in femurs at 10 mg/kg, po for 8 days by TRAP staining based light microscopic analysis; assay type: functional, organism-based
BMDM [15] = test: Anti-osteoporosis activity in ICR mouse bone marrow macrophages assessed as inhibition of RANKL-induced NFATc1 mRNA expression at 10 uM after 12 to 48 hrs by RT-PCR analysis; assay type: functional, cell-based
[16] = target: I-kappa-B kinase (Mus musculus) (UniProt Q60680+O88351+O88522); test: Inhibition of IKappaB phosphorylation in RANKL-induced ICR mouse bone marrow macrophages at 10 uM preincubated for 1 hr followed by RANKL-stimulation and measured after 5 to 30 mins by Western blot analysis; assay type: protein-complex assay
BMDM [17] = test: Inhibition of RANKL-induced osteoclastogenesis in ICR mouse bone marrow macrophages assessed as reduction in TRAP-positive multinucleated osteoclasts after 4 days by TRAP staining based assay; assay type: functional, cell-based
BMDM [18] = test: Anti-osteoporosis activity in ICR mouse bone marrow macrophages assessed as inhibition of RANKL-induced beta3-integrin mRNA expression at 10 uM after 12 to 48 hrs by RT-PCR analysis; assay type: functional
HEK-293T = test: Trans-suppression of NFkappaB (unknown origin) in HEK293T cells cotransfected with betagalactosidase at 10 uM incubated for 12 hrs followed by RANKL-stimulation by luciferase reporter gene assay; assay type: cell-based; details: Homo sapiens
BMDM [19] = test: Anti-osteoporosis activity in ICR mouse bone marrow macrophages assessed as inhibition of RANKL-induced OSCAR mRNA expression at 10 uM after 12 to 48 hrs by RT-PCR analysis; assay type: functional
BMDM [20] = test: Anti-osteoporosis activity in ICR mouse bone marrow macrophages assessed as inhibition of RANKL-induced c-Fos protein expression at 10 uM after 12 to 48 hrs by Western blot analysis; assay type: functional, cell-based
BMDM [21] = test: Cytotoxicity against ICR mouse bone marrow macrophages assessed as reduction in cell viability up to 10 uM after 3 days by XTT assay; assay type: cell-based; details: 72 h
Mus musculus [22] = test: Anti-resorptive activity in ICR mouse model of LPS-Induced bone loss assessed as increase in bone volume per tissue volume in proximal femurs at 10 mg/kg, po for 8 days by micro-CT analysis; assay type: functional, organism-based
BMDM [23] = test: Anti-osteoporosis activity in ICR mouse bone marrow macrophages assessed as inhibition of RANKL-induced NFATc1 protein expression at 10 uM after 12 to 48 hrs by Western blot analysis; assay type: functional, cell-based
Osteoclast [24] = test: Inhibition of bone-resorbing in ICR mouse osteoclasts assessed as downregulation of Ctsk-mRNA expression at 10 uM after 12 to 48 hrs by RT-PCR analysis; assay type: functional, cell-based
Osteoclast [25] = test: Inhibition of bone-resorbing in ICR mouse osteoclasts assessed as reduction in resorption at 10 uM after 24 hrs by pit formation assay; assay type: functional, cell-based
[26] = target: T1, 1-phosphatidylinositol 4,5-bisphosphate phosphodiesterase gamma-2 (Mus musculus); test: Inhibition of PLCgamma2 phosphorylation in RANKL-induced ICR mouse bone marrow macrophages at 10 uM preincubated for 1 hr followed by RANKL-stimulation and measured after 5 to 30 mins by Western blot analysis
BMDM [27] = test: Anti-osteoporosis activity in ICR mouse bone marrow macrophages assessed as inhibition of RANKL-induced OC-STAMP mRNA expression at 10 uM after 12 to 48 hrs by RT-PCR analysis; assay type: functional
BMDM [28] = test: Anti-osteoporosis activity in ICR mouse bone marrow macrophages assessed as inhibition of RANKL-induced c-Fos mRNA expression at 10 uM after 12 to 48 hrs by RT-PCR analysis; assay type: functional, cell-based
BMDM [29] = test: Anti-osteoporosis activity in ICR mouse bone marrow macrophages assessed as inhibition of RANKL-induced DC-STAMP mRNA expression at 10 uM after 12 to 48 hrs by RT-PCR analysis; assay type: functional
Mus musculus [30] = test: Anti-resorptive activity in ICR mouse model of LPS-Induced bone loss assessed as increase in trabecular bone in femurs at 10 mg/kg, po for 8 days by H and E staining based light microscopic analysis; assay type: functional, organism-based

NC1(c2ccc(-c3nc4ccn5c(=O)[nH]nc5c4cc3-c3ccccc3)cc2)CCC1
inhibition (BMDM [1]): Active
inhibition (BMDM [2]): Active
inhibition (BMDM [3]): Active
inhibition [4]: Active

C=C(C)[C@@H]1CC[C@]2(C(=O)O)CC[C@]3(C)[C@H](CC[C@@H]4[C@@]5(C)CC[C@H](O)C(C)(C)[C@@H]5CC[C@]43C)[C@@H]12 [BETULINIC ACID]
inhibition (BMDM [5]): Active
Activity (Mus musculus [6]): Active
fold change (FC) (BMDM [7]): 2 - 4
inhibition (BMDM [8]): inactive
Activity (Mus musculus [9]): Active
inhibition [10]: Active
fold change (FC) (BMDM [11]): 2 - 4
inhibition [12]: Active
Activity (Mus musculus [13]): Active
inhibition (Mus musculus [14]): Active
inhibition (BMDM [15]): Active
inhibition [16]: Active
inhibition (BMDM [17]): Dose-dependent effect
fold change (FC) (BMDM [18]): 2 - 4
Activity (HEK-293T): Active
fold change (FC) (BMDM [19]): 2 - 4
inhibition (BMDM [20]): Active
Activity (BMDM [21]): Non-Toxic
Activity (Mus musculus [22]): Active
inhibition (BMDM [23]): Active
inhibition (Osteoclast [24]): Active
inhibition (Osteoclast [25]): Active
inhibition [26]: Active
fold change (FC) (BMDM [27]): 2 - 4
inhibition (BMDM [28]): Active
fold change (FC) (BMDM [29]): 2 - 4
Activity (Mus musculus [30]): Active
